# According to article PMC4577729, “7-(Pyrazol-4-yl)-3H-imidazo[4,5-b]pyridine-based derivatives for kinase inhibition: Co-crystallisation studies with Aurora-A reveal distinct differences in the orientation of the pyrazole N1-substituent” (Bioorganic & Medicinal Chemistry Letters, 2015):
# Experiments:
# [1] = target: T1, Aurora A (Homo sapiens, UniProt O14965); test: Aurora-A microfluidic kinase assay; type: biochemical; settings: biochemical; mean of two determinations or mean ±SD for n > 2
# T1 sequence (O14965 1-403): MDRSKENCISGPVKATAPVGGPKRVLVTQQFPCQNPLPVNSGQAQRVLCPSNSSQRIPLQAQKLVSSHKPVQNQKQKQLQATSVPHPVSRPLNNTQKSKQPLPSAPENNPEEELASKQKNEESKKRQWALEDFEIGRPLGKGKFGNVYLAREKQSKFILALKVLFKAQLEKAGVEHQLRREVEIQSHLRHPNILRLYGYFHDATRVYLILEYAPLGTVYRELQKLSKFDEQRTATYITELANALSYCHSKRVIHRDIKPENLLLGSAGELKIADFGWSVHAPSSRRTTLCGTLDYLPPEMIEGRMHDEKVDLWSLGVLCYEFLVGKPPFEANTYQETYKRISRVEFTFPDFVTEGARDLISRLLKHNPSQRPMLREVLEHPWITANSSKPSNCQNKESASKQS
# Description: (§1) As part of our medicinal chemistry programme to discover selective inhibitors of Aurora-A,[12] we introduced the 1-benzyl-1H-pyrazol-4-yl moiety at C7 of the imidazo[4,5-b]pyridine scaffold to provide 7a (Table 1). We previously reported 1,3-dimethyl-1H-pyrazol-4-yl as a preferred substituent at the C2 position of the imidazo[4,5-b]pyridine scaffold[11] and this moiety was therefore incorporated into the design of 7a and analogues presented in this study. […] This in vitro profile prompted us to investigate this C7-pyrazole substituted imidazo[4,5-b]pyridine subseries in more detail. Firstly, we attempted to increase biochemical potency against Aurora-A, and also to improve microsomal stability.
# (§2) [17] Aurora-A and Aurora-B IC50 values were determined by using a microfluidic assay which monitors the separation of a phosphorylated product from its substrate, as described in Ref. [12].
# [2] = target: Aurora B (Homo sapiens, UniProt Q96GD4); test: Aurora-B microfluidic kinase assay; settings: biochemical; mean of two determinations or mean ±SD for n > 2
# Aurora B, sequence (Q96GD4 whole entry): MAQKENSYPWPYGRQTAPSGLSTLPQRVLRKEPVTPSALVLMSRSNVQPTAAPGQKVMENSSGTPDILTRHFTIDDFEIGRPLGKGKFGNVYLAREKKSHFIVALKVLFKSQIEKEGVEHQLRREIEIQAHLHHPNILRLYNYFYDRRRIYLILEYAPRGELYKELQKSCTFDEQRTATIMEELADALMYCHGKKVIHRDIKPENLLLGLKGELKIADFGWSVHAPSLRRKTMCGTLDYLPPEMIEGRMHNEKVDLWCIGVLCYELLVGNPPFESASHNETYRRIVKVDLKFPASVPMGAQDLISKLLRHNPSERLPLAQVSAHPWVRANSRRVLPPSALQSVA
# Description: as §1, §2
# [3] = Human liver microsomal stability; type: in vitro ADME; settings: percentage of compound metabolised after a 30 min incubation, human liver microsomes
# Protocol: [18] MLM and HLM microsomal stabilities were determined as described in Ref. [12].
# [4] = system: SW620 human colon carcinoma cells; test: SW620 cell growth inhibition; type: cell-based; settings: 72 h incubation
# Description: as §1
# [5] = system: HCT116 human colon carcinoma cells; test: HCT116 cell growth inhibition; type: cell-based; settings: 72 h incubation
# Description: as §1
# [6] = target: T1, Aurora A; test: Kinase selectivity profiling; type: biochemical; settings: 1 µM, assay duplicates
# Protocol: (§3) [20] Kinase selectivity profiling for compounds 7a, 7d, 14d and 14g was carried out at the International Centre for Protein Kinase Profiling, Division of Signal Transduction Therapy, University of Dundee.
# (§4) Table S1: Kinase selectivity profiling of compounds 7a and 7d in a 102-kinase panel screened at a concentration of 1 µM.
# (§5) Table S2: Kinase selectivity profiling of compounds 14d and 14g in a 105-kinase panel screened at a concentration of 1 µM.
# [7] = target: BRSK2 (Homo sapiens, UniProt Q8IWQ3); test: Kinase selectivity profiling; type: biochemical; settings: 1 µM, assay duplicates
# BRSK2, sequence (Q8IWQ3 whole entry): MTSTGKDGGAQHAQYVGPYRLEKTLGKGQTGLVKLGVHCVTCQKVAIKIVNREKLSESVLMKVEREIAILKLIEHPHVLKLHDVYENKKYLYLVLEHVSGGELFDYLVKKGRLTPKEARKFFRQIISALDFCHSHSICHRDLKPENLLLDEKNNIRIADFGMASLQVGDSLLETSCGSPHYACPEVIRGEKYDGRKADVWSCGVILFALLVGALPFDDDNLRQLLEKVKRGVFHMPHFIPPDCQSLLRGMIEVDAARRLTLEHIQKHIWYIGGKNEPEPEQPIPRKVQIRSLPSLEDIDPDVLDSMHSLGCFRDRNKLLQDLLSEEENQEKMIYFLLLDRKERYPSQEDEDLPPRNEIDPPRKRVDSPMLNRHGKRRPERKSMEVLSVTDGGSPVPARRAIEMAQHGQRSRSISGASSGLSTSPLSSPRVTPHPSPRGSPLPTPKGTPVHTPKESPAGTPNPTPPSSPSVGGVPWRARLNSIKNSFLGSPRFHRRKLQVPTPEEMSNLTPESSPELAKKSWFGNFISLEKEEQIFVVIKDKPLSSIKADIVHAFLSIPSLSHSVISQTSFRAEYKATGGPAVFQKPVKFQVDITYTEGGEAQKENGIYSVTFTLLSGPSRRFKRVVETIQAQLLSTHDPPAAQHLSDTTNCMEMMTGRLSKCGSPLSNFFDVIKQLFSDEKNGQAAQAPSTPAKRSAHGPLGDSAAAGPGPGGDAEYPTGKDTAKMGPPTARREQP
# Protocol: as §3, §4, §5
# [8] = target: BTK (Homo sapiens, UniProt Q06187); test: Kinase selectivity profiling; type: biochemical; settings: 1 µM, assay duplicates
# BTK, sequence (Q06187 whole entry): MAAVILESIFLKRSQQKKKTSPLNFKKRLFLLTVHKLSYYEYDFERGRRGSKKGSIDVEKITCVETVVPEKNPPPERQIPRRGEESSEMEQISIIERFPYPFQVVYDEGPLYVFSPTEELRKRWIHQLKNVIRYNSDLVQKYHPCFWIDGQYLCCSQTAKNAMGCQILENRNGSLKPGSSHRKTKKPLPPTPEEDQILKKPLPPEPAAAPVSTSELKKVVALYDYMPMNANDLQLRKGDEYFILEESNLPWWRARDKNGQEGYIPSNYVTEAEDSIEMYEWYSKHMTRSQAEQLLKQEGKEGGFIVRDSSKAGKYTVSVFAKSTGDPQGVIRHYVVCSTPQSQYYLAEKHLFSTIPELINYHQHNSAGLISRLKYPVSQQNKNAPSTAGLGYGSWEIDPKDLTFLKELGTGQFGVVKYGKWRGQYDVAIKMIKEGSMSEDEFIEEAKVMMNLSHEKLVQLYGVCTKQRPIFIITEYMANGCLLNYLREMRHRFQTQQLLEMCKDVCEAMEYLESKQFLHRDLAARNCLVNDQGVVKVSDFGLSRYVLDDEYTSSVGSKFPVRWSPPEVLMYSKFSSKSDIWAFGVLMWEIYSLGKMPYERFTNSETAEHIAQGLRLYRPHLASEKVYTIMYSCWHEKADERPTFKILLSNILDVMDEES
# Protocol: as §3, §4, §5
# [9] = target: CHK2 (Homo sapiens, UniProt O96017); test: Kinase selectivity profiling; type: biochemical; settings: 1 µM, assay duplicates
# Protocol: as §3, §4, §5
# [10] = target: DYRK1A (Homo sapiens, UniProt Q13627); test: Kinase selectivity profiling; type: biochemical; settings: 1 µM, assay duplicates
# Protocol: as §3, §4, §5
# [11] = target: FGF-R1 (Homo sapiens, UniProt P11362); test: Kinase selectivity profiling; type: biochemical; settings: 1 µM, assay duplicates
# Protocol: as §3, §4, §5
# [12] = target: IKKb (Homo sapiens, UniProt O14920); test: Kinase selectivity profiling; type: biochemical; settings: 1 µM, assay duplicates
# IKKb, sequence (O14920 whole entry): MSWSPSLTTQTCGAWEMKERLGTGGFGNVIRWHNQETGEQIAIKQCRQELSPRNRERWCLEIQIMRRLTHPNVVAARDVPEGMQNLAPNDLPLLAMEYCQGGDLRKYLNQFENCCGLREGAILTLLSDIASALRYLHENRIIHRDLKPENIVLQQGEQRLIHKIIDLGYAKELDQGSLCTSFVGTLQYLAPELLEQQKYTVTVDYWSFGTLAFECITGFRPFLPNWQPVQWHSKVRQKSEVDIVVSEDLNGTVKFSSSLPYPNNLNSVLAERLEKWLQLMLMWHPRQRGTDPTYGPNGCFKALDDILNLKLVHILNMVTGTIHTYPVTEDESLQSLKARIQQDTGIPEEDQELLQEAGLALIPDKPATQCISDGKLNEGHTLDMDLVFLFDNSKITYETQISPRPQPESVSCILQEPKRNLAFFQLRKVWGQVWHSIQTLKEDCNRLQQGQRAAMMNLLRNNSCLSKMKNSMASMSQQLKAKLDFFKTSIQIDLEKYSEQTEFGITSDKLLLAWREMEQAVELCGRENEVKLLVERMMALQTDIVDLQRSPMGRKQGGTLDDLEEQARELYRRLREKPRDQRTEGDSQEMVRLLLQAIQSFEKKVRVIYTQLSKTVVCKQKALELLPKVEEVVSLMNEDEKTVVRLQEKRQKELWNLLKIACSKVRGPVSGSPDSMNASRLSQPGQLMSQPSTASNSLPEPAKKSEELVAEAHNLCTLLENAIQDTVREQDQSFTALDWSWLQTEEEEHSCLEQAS
# Protocol: as §3, §4, §5
# [13] = target: IR (Homo sapiens, UniProt P06213); test: Kinase selectivity profiling; type: biochemical; settings: 1 µM, assay duplicates
# Protocol: as §3, §4, §5
# [14] = target: IRAK4 (Homo sapiens, UniProt Q9NWZ3); test: Kinase selectivity profiling; type: biochemical; settings: 1 µM, assay duplicates
# Protocol: as §3, §4, §5
# [15] = target: JAK2 (Homo sapiens, UniProt O60674); test: Kinase selectivity profiling; type: biochemical; settings: for JAK2 inhibition: 1 μM; for JAK2 % activity remaining: 1 µM, assay duplicates
# JAK2, sequence (O60674 whole entry): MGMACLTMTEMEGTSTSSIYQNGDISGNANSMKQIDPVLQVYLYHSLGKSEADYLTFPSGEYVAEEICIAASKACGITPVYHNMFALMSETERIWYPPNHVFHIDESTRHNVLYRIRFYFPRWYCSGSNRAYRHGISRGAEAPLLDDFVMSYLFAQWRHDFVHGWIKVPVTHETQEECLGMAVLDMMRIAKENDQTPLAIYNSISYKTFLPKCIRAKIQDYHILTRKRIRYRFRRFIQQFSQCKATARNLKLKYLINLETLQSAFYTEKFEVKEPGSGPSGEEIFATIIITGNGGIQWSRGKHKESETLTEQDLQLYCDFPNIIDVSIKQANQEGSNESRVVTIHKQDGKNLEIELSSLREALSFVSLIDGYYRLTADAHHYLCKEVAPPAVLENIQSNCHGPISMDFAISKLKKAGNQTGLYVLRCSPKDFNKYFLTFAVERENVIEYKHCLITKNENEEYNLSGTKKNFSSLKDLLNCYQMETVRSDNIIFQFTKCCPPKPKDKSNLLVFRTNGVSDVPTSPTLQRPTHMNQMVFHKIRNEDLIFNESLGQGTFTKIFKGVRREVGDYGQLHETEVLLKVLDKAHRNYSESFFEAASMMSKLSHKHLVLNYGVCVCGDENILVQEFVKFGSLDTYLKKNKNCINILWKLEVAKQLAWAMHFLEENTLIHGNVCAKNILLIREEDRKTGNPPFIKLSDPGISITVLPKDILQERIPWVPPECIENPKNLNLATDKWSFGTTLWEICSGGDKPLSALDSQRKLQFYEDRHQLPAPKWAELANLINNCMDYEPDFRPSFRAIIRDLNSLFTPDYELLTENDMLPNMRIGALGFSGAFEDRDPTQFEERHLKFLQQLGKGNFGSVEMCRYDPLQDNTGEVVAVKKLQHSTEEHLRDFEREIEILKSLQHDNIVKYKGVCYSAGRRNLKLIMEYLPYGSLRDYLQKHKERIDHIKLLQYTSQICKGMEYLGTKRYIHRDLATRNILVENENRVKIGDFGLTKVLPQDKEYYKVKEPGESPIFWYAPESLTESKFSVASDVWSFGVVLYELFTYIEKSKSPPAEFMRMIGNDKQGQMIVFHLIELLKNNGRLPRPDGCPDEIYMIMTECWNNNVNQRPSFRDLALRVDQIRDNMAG
# Protocol: as §3, §4, §5
# [16] = target: JNK1 (Homo sapiens, UniProt P45983); test: Kinase selectivity profiling; type: biochemical; settings: 1 µM, assay duplicates
# Protocol: as §3, §4, §5
# [17] = target: LKB1 (Homo sapiens, UniProt Q15831); test: Kinase selectivity profiling; type: biochemical; settings: 1 µM, assay duplicates
# Protocol: as §3, §4, §5
# [18] = target: MAPKAP-K3 (Homo sapiens, UniProt Q16644); test: Kinase selectivity profiling; type: biochemical; settings: 1 µM, assay duplicates
# Protocol: as §3, §4, §5
# [19] = target: MARK4 (Homo sapiens, UniProt Q96L34); test: Kinase selectivity profiling; type: biochemical; settings: 1 µM, assay duplicates
# Protocol: as §3, §4, §5
# [20] = target: MEKK1 (Homo sapiens, UniProt Q13233); test: Kinase selectivity profiling; type: biochemical; settings: 1 µM, assay duplicates
# Protocol: as §3, §4, §5
# [21] = target: MLK1 (Homo sapiens, UniProt P80192); test: Kinase selectivity profiling; type: biochemical; settings: for MLK1 inhibition: 1 μM; for MLK1 % activity remaining: 1 µM, assay duplicates
# MLK1, sequence (P80192 whole entry): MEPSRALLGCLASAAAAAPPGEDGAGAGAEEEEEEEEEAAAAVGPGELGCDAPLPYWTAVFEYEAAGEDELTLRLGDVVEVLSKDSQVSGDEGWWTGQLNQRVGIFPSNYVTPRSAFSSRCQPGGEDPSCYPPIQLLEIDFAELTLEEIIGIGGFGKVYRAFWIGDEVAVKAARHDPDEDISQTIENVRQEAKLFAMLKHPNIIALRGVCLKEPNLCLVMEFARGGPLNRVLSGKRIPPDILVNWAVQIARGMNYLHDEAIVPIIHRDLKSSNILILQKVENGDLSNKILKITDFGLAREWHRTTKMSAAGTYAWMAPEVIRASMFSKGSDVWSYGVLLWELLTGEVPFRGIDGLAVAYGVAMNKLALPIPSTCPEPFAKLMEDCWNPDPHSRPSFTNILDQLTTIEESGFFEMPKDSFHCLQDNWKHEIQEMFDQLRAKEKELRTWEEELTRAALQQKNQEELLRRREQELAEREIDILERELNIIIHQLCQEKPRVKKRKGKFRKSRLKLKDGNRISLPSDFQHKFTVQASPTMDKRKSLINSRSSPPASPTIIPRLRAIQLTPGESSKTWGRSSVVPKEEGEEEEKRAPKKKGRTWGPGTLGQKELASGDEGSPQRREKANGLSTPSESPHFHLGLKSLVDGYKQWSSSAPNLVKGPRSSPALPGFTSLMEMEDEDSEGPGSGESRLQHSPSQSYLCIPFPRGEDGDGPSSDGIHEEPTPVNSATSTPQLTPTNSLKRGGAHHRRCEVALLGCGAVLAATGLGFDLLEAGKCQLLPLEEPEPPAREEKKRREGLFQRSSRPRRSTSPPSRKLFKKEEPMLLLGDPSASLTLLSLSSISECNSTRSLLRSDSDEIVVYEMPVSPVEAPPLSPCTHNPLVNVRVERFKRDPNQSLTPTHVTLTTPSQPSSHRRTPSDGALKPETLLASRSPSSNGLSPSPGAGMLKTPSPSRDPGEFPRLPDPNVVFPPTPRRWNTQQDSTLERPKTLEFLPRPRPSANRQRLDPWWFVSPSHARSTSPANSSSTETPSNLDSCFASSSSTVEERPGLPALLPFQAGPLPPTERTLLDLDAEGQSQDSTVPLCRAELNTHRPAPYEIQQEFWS
# Protocol: as §3, §4, §5
# [22] = target: MNK2 (Homo sapiens, UniProt Q9HBH9); test: Kinase selectivity profiling; type: biochemical; settings: 1 µM, assay duplicates
# Protocol: as §3, §4, §5
# [23] = target: MSK1 (Homo sapiens, UniProt O75582); test: Kinase selectivity profiling; type: biochemical; settings: 1 µM, assay duplicates
# Protocol: as §3, §4, §5
# [24] = target: MST4 (Homo sapiens, UniProt Q9P289); test: Kinase selectivity profiling; type: biochemical; settings: 1 µM, assay duplicates
# Protocol: as §3, §4, §5
# [25] = target: PIM2 (Homo sapiens, UniProt Q9P1W9); test: Kinase selectivity profiling; type: biochemical; settings: 1 µM, assay duplicates
# Protocol: as §3, §4, §5
# [26] = target: PIM3 (Homo sapiens, UniProt Q86V86); test: Kinase selectivity profiling; type: biochemical; settings: 1 µM, assay duplicates
# Protocol: as §3, §4, §5
# [27] = target: PKD1 (Homo sapiens, UniProt Q15139); test: Kinase selectivity profiling; type: biochemical; settings: 1 µM, assay duplicates
# Protocol: as §3, §4, §5
# [28] = target: PRAK (Homo sapiens, UniProt Q8IW41); test: Kinase selectivity profiling; type: biochemical; settings: 1 µM, assay duplicates
# Protocol: as §3, §4, §5
# [29] = target: SYK (Homo sapiens, UniProt P43405); test: Kinase selectivity profiling; type: biochemical; settings: 1 µM, assay duplicates
# Protocol: as §3, §4, §5
# [30] = target: SmMLCK (Homo sapiens, UniProt Q15746); test: Kinase selectivity profiling; type: biochemical; settings: 1 µM, assay duplicates
# Protocol: as §3, §4, §5
# [31] = target: p38g MAPK (Homo sapiens, UniProt P53778); test: Kinase selectivity profiling; type: biochemical; settings: 1 µM, assay duplicates
# Protocol: as §3, §4, §5
Structure (SMILES),IC50 [1] [µM],IC50 [2] [µM],HLM % met/30 min [3] [%],GI50 [4] [µM],GI50 [5] [µM],Aurora A % activity remaining [6] [%],BRSK2 % activity remaining [7] [%],BTK % activity remaining [8] [%],CHK2 % activity remaining [9] [%],DYRK1A % activity remaining [10] [%],FGF-R1 % activity remaining [11] [%],IKKb % activity remaining [12] [%],IR % activity remaining [13] [%],IRAK4 % activity remaining [14] [%],JAK2 inhibition [15],JAK2 % activity remaining [15] [%],JNK1 % activity remaining [16] [%],LKB1 % activity remaining [17] [%],MAPKAP-K3 % activity remaining [18] [%],MARK4 % activity remaining [19] [%],other results
Cc1nn(C)cc1-c1nc2c(-c3cnn(Cc4ccccc4)c3)c(Cl)cnc2[nH]1 [Compound 7a],0.212 ± 0.107,0.461 ± 0.147,43,0.18,0.15,1,33,46,26,3,5,48,3,28,greater than 80%,2,13,49,69,37,MEKK1 % activity remaining [20]: 74%; MLK1 inhibition [21]: greater than 80%; MLK1 % activity remaining [21]: 3%; MNK2 % activity remaining [22]: 44%; MSK1 % activity remaining [23]: 62%; MST4 % activity remaining [24]: 64%; PIM2 % activity remaining [25]: 86%; PIM3 % activity remaining [26]: 45%; PKD1 % activity remaining [27]: 76%; PRAK % activity remaining [28]: 83%; SYK % activity remaining [29]: 37%; SmMLCK % activity remaining [30]: 51%; p38g MAPK % activity remaining [31]: 17%
Cc1cc(Cn2cc(-c3c(Cl)cnc4[nH]c(-c5cn(C)nc5C)nc34)cn2)no1 [Compound 14d],0.035,0.075,37,0.35,0.34,1,72,33,32,9,7,63,53,33,≥ 80%,2,45,62,103,25,MEKK1 % activity remaining [20]: 66%; MLK1 inhibition [21]: ≥ 80%; MLK1 % activity remaining [21]: 8%; MNK2 % activity remaining [22]: 32%; MSK1 % activity remaining [23]: 61%; MST4 % activity remaining [24]: 56%; PIM2 % activity remaining [25]: 91%; PIM3 % activity remaining [26]: 55%; PKD1 % activity remaining [27]: 97%; PRAK % activity remaining [28]: 100%; SYK % activity remaining [29]: 49%; SmMLCK % activity remaining [30]: 43%; p38g MAPK % activity remaining [31]: 36%
